{"source": "paper PMC5933457", "about": "“Probing biological activity through structural modelling of ligand-receptor interactions of 2,4-disubstituted thiazole retinoids” (Bioorganic & Medicinal Chemistry, 2018)", "key": {"TERA2.cl.SP12 cells": {"system": "TERA2.cl.SP12 cells", "test": "Immunocytochemistry for A2B5, TUJ-1 and cytokeratin 8", "format": "cell-based, human", "settings": "for expression of epithelial phenotype marker cytokeratin 8: 10 μM, 1, 2 and 3 weeks, Fig. 7D; for neuronal differentiation by TUJ-1 staining: up to 3 weeks", "method": "Third, we carried out assessment of protein expression using immunofluorescent techniques on cultures of TERA2.cl.SP12 cells treated with retinoids.\nTERA2.cl.SP12 cells were seeded at 5000 cells per well on poly-D-lysine (25 μg/ml) coated cover slips in 6-well plates. Cells were treated with each retinoid at a concentration of 10 μM for 7, 14 and 21 days (the media was changed every 3–4 days). Cells were also treated with 1% DMSO for the same time periods as a […] control. At the end of the treatment period, cells were fixed (4% para-formaldehyde in PBS for 30 min at room temperature (RT) and rinsed with PBS. One set of experiments was used for the cell surface marker A2B5 (diluted 1:100, R&D systems), and the other set was prepared for intracellular staining using 1% Triton-X-100 (Sigma Aldrich) in PBS as a permeabilizing agent for 10 min at RT. Non-specific labeling was blocked by incubation with a solution of 1% goat serum (Sigma Aldrich) containing 0.2% Tween-20 (Sigma Aldrich) in PBS for one hour at RT. The primary antibodies β-III tubulin antibody (TUJ-1) (1:200, Affymetrix eBioscience) and CK-8 antibody (1:500, Affymetrix eBioscience) were diluted in blocking solution and incubated with the cells for 1 h at RT. After washing three times for 15 min with PBS, cells were incubated for 1 h in the dark with anti-mouse FITC-conjugated secondary antibody IgM (1:128, Sigma Aldrich) for A2B5 staining, and anti-mouse Alexafluor 488 IgG (1:600, Invitrogen) for TUJ-1 and CK-8 staining. Hoechst 33,342 nuclear staining dye (1:1000, Molecular Probes) was dissolved in blocking solution after the secondary antibody staining step for nuclear staining.\nImmunocytofluorescent images of fixed cells were visualized using a Leica SP5 confocal microscope. Scale bars are shown at 25 μm."}, "[1]": {"biological_target": "T1, RARβ ligand-binding domain (GST-RAR-β-LBD) (Homo sapiens, UniProt P10826)", "T1 construct": "purchased Invitrogen", "T1 sequence (P10826 183-417 limits assumed)": "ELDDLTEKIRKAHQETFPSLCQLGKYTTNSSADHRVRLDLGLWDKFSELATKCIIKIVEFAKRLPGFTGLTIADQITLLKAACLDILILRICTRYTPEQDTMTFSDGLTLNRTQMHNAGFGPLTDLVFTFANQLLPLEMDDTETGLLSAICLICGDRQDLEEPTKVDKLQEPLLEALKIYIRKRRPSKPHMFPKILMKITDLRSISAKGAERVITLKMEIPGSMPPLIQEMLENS", "test": "LanthaScreen TR-FRET RARβ co-activator (receptor binding) assay", "format": "biochemical", "settings": "for EC50: estimated EC50, TR-FRET co-activator assay, 4 h incubation, read-out: EC50 (95% confidence range) RARβ; for binding-curve upper asymptote (coactivator recruitment), RARβ: in words, Fig. 6B", "method": "(§1) These predictions were tested through a receptor-binding assay for each RAR isotype (Fig. 6), where the assay signal is dependent on two parameters: the binding affinity of ligand to the RAR LBD, and the affinity of the coactivator for the ligand-LBD complex. For this assay, binding curves and variation in level of the upper asymptote can reflect differences in co-activator affinity for the ligand-LBD complex; variation in affinity of ligand for LBD shifts the midpoint (EC50) of the binding curve, whereas changes in the level of the upper asymptote may result from changes in coactivator affinity for the ligand-LBD complex alone, or in combination with changes in affinity for ligand with LBD.[23]\n(§2) The binding interaction of each retinoid with RARα, β and γ were determined in vitro by time-resolved fluorescence resonance energy transfer (TR-FRET) using the LanthaScreen TR-FRET RARα, RARβ, and RARγ co-activator assays according to the manufacturer’s (Invitrogen™) instructions.[23] This uses a terbium-labeled anti-GST antibody, a fluorescein-labeled co activator peptide, and RARα/β/γ ligand-binding domains (LBD) that are tagged with glutathione-S-transferase (GST) in a homogenous assay format. All experiments were performed in black, 384-well low-volume plates in the dark at RT with a 4 h incubation time. The final assay volume was 20 μL and all dilutions were carried out using TR-FRET assay buffer, with a final DMSO concentration of 1%. A mixture of either 3.5 nM GST-RAR-α-LBD or 2.5 nM GST-RAR-β-LBD or 3 nM GST-RAR-γ-LBD with 62.5 nM Tb-anti GST antibody and 30 μM fluorescein-labeled peptide and retinoid or DMSO control was added to each of the wells. Each ligand assay was performed in duplicate and measured using a PHERAstar FS Microplate Reader (BMG Labtech, Ortenberg, Germany) with instrument settings as described in the manufacturer’s instructions for LanthaScreen assays. The TR-FRET signal was expressed as the ratio of the signals at 520 nm and 490 nm. The data were fitted to a three-parameter ligand-binding curve using SigmaPlot (version 12.5, Systat Software Inc., San Jose CA) and normalized to the lower asymptote of each binding curve. […] Since the assay involves interactions between ligand and LBD, and ligand-dependent interactions between the LBD and fluorescein-labeled co activator, the binding assay data were interpreted by simulating these coupled chemical reactions using the biochemical simulator COPASI version 4.3.[23], [54]\n(§3) The readout of the Lanthascreen TR-FRET binding assay is based on a Forster resonance energy transfer (FRET) signal generated from the interaction between a terbium-labelled anti-glutathione-S-transferase (GST) antibody and a fluorescein-labelled coactivator peptide. The RAR ligand-binding domain (LBD) is a GST fusion protein and interaction between the LBD and the fluorescein-labelled coactivator peptide is driven by the binding of ligand to the LBD, and detected by the FRET signal from the terbium/fluorescein interaction when the terbium-labelled anti-GST binds the LBD fusion protein. The output of the assay thus relies on two binding interactions: ligand with LBD, and ligand-bound LBD with the coactivator peptide. As both interactions may be affected by the fit of ligand to the binding pocket of the LBD, we used the biochemical pathway simulator COPASI^1 to build a simple model of how the FRET signal output in the assay will vary according to differential changes in the kinetics of the two binding interactions. Reactions were modelled deterministically using mass-action kinetics described by ordinary differential equations (ODE) within COPASI.^1 This model enables us to assess the effect of different rate constants and varying ligand concentration on the formation of the final ternary complex that is the read-out from the Lanthascreen TR-FRET assay."}, "[2]": {"biological_target": "T2, RARα ligand-binding domain (GST-RAR-α-LBD) (Homo sapiens, UniProt P10276)", "T2 construct": "purchased Invitrogen", "T2 sequence (P10276 183-417 limits assumed)": "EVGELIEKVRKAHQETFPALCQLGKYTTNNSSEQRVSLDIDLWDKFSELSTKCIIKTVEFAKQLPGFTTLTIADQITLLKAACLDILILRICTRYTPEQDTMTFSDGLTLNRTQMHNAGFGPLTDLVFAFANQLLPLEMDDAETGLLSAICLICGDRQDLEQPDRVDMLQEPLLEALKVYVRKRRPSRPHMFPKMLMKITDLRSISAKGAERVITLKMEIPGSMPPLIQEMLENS", "test": "LanthaScreen TR-FRET RARα co-activator (receptor binding) assay", "format": "biochemical", "settings": "for EC50: read-out: EC50 (95% confidence range) RARα; for binding-curve upper asymptote (coactivator recruitment), RARα: in words, Fig. 6A", "method": "as §1, §2, §3"}, "[3]": {"settings": "estimated EC50, TR-FRET co-activator assay, 4 h incubation"}}, "note": "Read-outs that look alike come from different tables or passages of the source.", "data": [{"smiles": "CCOCCOc1nc(-c2ccc(C(=O)O)cc2)sc1C", "note": "[GZ18]", "values": [{"measurement": "expression of epithelial phenotype marker cytokeratin 8", "setting": "TERA2.cl.SP12 cells", "result": "more effective"}, {"measurement": "neuronal differentiation by TUJ-1 staining", "setting": "TERA2.cl.SP12 cells; 10 μM, Fig. 7C", "result": "very low activity"}, {"measurement": "EC50", "setting": "[1]", "result": 0.0567, "unit": "µM"}, {"measurement": "binding-curve upper asymptote (coactivator recruitment), RARβ", "setting": "[1]", "result": "very low asymptotes"}, {"measurement": "EC50", "setting": "[2]; [3]", "result": 0.0151, "unit": "µM"}, {"measurement": "binding-curve upper asymptote (coactivator recruitment), RARα", "setting": "[2]", "result": "high curve asymptotes"}]}, {"smiles": "CCOC(=O)c1ccc(-c2nc(-c3ccccc3)c(C)s2)cc1", "note": "[GZ22]", "values": [{"measurement": "expression of epithelial phenotype marker cytokeratin 8", "setting": "TERA2.cl.SP12 cells", "result": "more effective"}, {"measurement": "neuronal differentiation by TUJ-1 staining", "setting": "TERA2.cl.SP12 cells; 10 μM, Fig. 7C", "result": "very low activity"}, {"measurement": "EC50", "setting": "[1]", "result": 0.136, "unit": "µM"}, {"measurement": "binding-curve upper asymptote (coactivator recruitment), RARβ", "setting": "[1]", "result": "high asymptote"}, {"measurement": "EC50", "setting": "[2]; [3]", "result": 0.082, "unit": "µM"}, {"measurement": "binding-curve upper asymptote (coactivator recruitment), RARα", "setting": "[2]", "result": "lower asymptotes"}]}, {"smiles": "Cc1sc(-c2ccc(C(=O)O)cc2)nc1-c1ccc2c(c1)C(C)(C)CCC2(C)C", "note": "[GZ25]", "values": [{"measurement": "expression of epithelial phenotype marker cytokeratin 8", "setting": "TERA2.cl.SP12 cells", "result": "not detectable"}, {"measurement": "expression of neuronal differentiation marker A2B5 (immunofluorescence)", "setting": "TERA2.cl.SP12 cells; 10 μM, after 7 days, Fig. 7C", "result": "induced"}, {"measurement": "neuronal differentiation by TUJ-1 staining", "setting": "TERA2.cl.SP12 cells; 10 μM, Fig. 7C", "result": "most effective"}, {"measurement": "EC50", "setting": "[1]", "result": 0.011, "unit": "µM"}, {"measurement": "binding-curve upper asymptote (coactivator recruitment), RARα", "setting": "[2]", "result": "high curve asymptotes"}, {"measurement": "EC50", "setting": "[2]", "result": 0.0082, "unit": "µM"}]}]}
